Measurements as given in patent US12371454B2, “Cyclic peptide compound having Kras inhibitory action” (priority 2019, dated 2025).
Starred links: 1 amine or outer side, 2 acyl side, 3 side chain; linkers in the order of their positions; H or OH if unused. Positions of bridges follow the written chain, without caps; N, C: chain ends. Non-standard residues stand in square brackets, D forms with d. Residues, ends and D or L forms follow the SMILES beside them. *: point of attachment. hPhe(3-Cl-4-CF3) = N[C@@H](CCc1ccc(C(F)(F)F)c(Cl)c1)C(=O)O; 3Oxa8azabicyclo(3.2.1)octane = C1CC2COCC1N2*; NMeAbu(4,4,4-F3) = CN[C@@H](CC(F)(F)F)C(=O)O; NMePhe(3-Cl) = CN[C@@H](Cc1cccc(Cl)c1)C(=O)O; NMePhe(4-Me) = CN[C@@H](Cc1ccc(C)cc1)C(=O)O; NMedβ3hAla = C[C@H](CC(=O)[*:2])N(C)[*:1]; dβ3hPip = O=C(C[C@H]1CCCCN1[*:1])[*:2]; NMeAla(cPr) = CN[C@@H](CC1CC1)C(=O)O; NMeGly(cBu) = CN[C@H](C(=O)O)C1CCC1; NMeCha = CN[C@@H](CC1CCCCC1)C(=O)O; NMehLeu = CN[C@@H](CCC(C)C)C(=O)O; NMeChg = CN[C@H](C(=O)O)C1CCCCC1; NMeI = CC[C@H](C)[C@H](NC)C(=O)O; NMeT = CN[C@H](C(=O)O)[C@@H](C)O; NMeD = CN[C@@H](CC(=O)O)C(=O)O; NMeL = CN[C@@H](CC(C)C)C(=O)O; NMeNva = CCC[C@H](NC)C(=O)O; NMeV = CN[C@H](C(=O)O)C(C)C; Trifluoroethyl = FC(F)(F)C*; d(β3hA) = C[C@@H](N)CC(=O)O; NMeS = CN[C@@H](CO)C(=O)O; Morpholide = C1CN(*)CCO1; NMeA = CN[C@@H](C)C(=O)O; Piperidide = C1CCN(*)CC1; Pyrrolidide = C1CCN(*)C1; Ac5c = NC1(C(=O)O)CCCC1; Aze = O=C(O)[C@@H]1CCN1; Ac4c = NC1(C(=O)O)CCC1; Sar = CNCC(=O)O; Propyl = CCC*

Experiments:
[1] = target: T1, Kras and SOS1 (biotin-tagged human Kras loaded with GDP, His-tagged human SOS1) (Homo sapiens, UniProt P01116, G12D); experiment: Protein-protein interaction inhibition between Kras and SOS1 (KrasGl2D-SOS PPI) using AlphaScreen; format: binding; details: AlphaScreen; biotin-tagged human Kras loaded with GDP, His-tagged human SOS1; read-out: KRAS G12D-SOS PPI IC50
T1 construct: made in house; host or cells: E. coli (stated for Kras only)
T1 sequence (P01116 1-188 isoform P01116-2 G12D): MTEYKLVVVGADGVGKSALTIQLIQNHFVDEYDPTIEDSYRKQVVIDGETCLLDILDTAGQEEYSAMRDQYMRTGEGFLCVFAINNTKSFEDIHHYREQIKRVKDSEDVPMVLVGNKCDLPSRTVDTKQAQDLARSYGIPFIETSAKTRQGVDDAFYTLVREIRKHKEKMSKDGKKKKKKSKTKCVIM
In short: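 Energy transfer from nickel-chelate donor beads bound to His-SOS1 to streptavidin acceptor beads bound to biotin-Kras, expressed in E. coli and loaded with GDP after purification, was monitored. Donors were excited at 680 nm; singlet oxygen reaching acceptors gave emission read at 520-620 nm.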

[2] = test system: Human pancreatic cancer cell line AsPC-1; experiment: Measurement of AsPC-1 cell growth inhibition (AsPC-1 CGI); format: cell-based; details: 96 h
In short: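 AsPC-1 cells in 15% FBS RPMI-1640 were exposed to test compound for 96 hours at 37° C, with CellTiter-Glo as endpoint.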

CC[C@H](C)[C@@H]1NC(=O)[C@H](C2CCC2)N(C)C(=O)C[C@@H](C(=O)N2C3CCC2COC3)N(C)C(=O)[C@H](C2CCCCC2)N(C)C(=O)C2(CCCC2)NC(=O)[C@@H]2CCCN2C(=O)[C@H](CCc2ccc(C(F)(F)F)c(Cl)c2)NC(=O)CN(C)C(=O)[C@H](CC2CCCCC2)N(C)C(=O)CN(C)C(=O)CN(C)C1=O [Compound 701] ([NMeGly(cBu)]I[Sar][Sar][NMeCha][Sar][hPhe(3-Cl-4-CF3)]P[Ac5c][NMeChg][NMeD]-{3Oxa8azabicyclo(3.2.1)octane}; lactam N-11)
IC50 [1]: 0.69 nM | IC50 [2]: 50 to 100 nM

CC[C@H](C)[C@@H]1NC(=O)[C@H](CC(C)C)N(C)C(=O)C[C@@H](C)NC(=O)[C@H]([C@@H](C)CC)N(C)C(=O)C2(CCCC2)NC(=O)[C@@H]2CCCN2C(=O)[C@H](CCc2ccc(C(F)(F)F)c(Cl)c2)NC(=O)CN(C)C(=O)[C@H](CC2CCCCC2)N(C)C(=O)CN(C)C(=O)CN(C)C1=O [Compound 708] (cyclo([Ac5c][NMeI][d(β3hA)][NMeL]I[Sar][Sar][NMeCha][Sar][hPhe(3-Cl-4-CF3)]P))
IC50 [1]: 11 nM | IC50 [2]: 50 to 100 nM

CC[C@H](C)[C@@H]1NC(=O)[C@H](CC(C)C)N(C)C(=O)C[C@@H](C(=O)N2CCCCC2)N(C)C(=O)[C@H](C(C)C)N(C)C(=O)C2(CCC2)NC(=O)[C@@H]2CCCN2C(=O)[C@H](CCc2ccc(C(F)(F)F)c(Cl)c2)NC(=O)CN(C)C(=O)[C@H](CC2CCCCC2)N(C)C(=O)CN(C)C(=O)CN(C)C1=O [Compound 712] ([NMeL]I[Sar][Sar][NMeCha][Sar][hPhe(3-Cl-4-CF3)]P[Ac4c][NMeV][NMeD]-Piperidide; lactam N-11)
IC50 [1]: 2.7 nM | IC50 [2]: 50 to 100 nM

CC[C@H](C)[C@@H]1NC(=O)[C@H](C)N(C)C(=O)C[C@@H](C)N(C)C(=O)[C@H](C(C)C)N(C)C(=O)C2(CCCC2)NC(=O)[C@@H]2CCCN2C(=O)[C@H](CCc2ccc(C(F)(F)F)c(Cl)c2)NC(=O)CN(C)C(=O)[C@H](CC2CCCCC2)N(C)C(=O)CN(C)C(=O)CN(C)C1=O [Compound 714] (cyclo([Ac5c][NMeV][NMedβ3hAla][NMeA]I[Sar][Sar][NMeCha][Sar][hPhe(3-Cl-4-CF3)]P))
IC50 [1]: 2.3 nM | IC50 [2]: 100 to 500 nM

CC[C@H](C)[C@@H]1NC(=O)[C@H](CC(C)C)N(C)C(=O)C[C@@H](C(=O)N2CCCCC2)N(C)C(=O)[C@H](C2CCCCC2)N(C)C(=O)C2(CCCC2)NC(=O)[C@@H]2CCCN2C(=O)[C@H](CCc2ccc(C(F)(F)F)c(Cl)c2)NC(=O)CN(C)C(=O)[C@H](COCC(F)(F)F)N(C)C(=O)CN(C)C(=O)CN(C)C1=O [Compound 732] ([NMeL]I[Sar][Sar][NMeS](Trifluoroethyl)[Sar][hPhe(3-Cl-4-CF3)]P[Ac5c][NMeChg][NMeD]-Piperidide; lactam N-11)
IC50 [1]: 1.4 nM | IC50 [2]: 100 to 500 nM

CCCOC[C@H]1C(=O)N(C)CC(=O)N[C@@H](CCc2ccc(C(F)(F)F)c(Cl)c2)C(=O)N2CCC[C@H]2C(=O)NC2(CCCC2)C(=O)N(C)[C@@H](C2CCCCC2)C(=O)N(C)[C@H](C(=O)N2CCCC2)CC(=O)N(C)[C@@H](CC(F)(F)F)C(=O)N[C@@H]([C@@H](C)CC)C(=O)N(C)CC(=O)N(C)CC(=O)N1C [Compound 735] ([NMeAbu(4,4,4-F3)]I[Sar][Sar][NMeS](Propyl)[Sar][hPhe(3-Cl-4-CF3)]P[Ac5c][NMeChg][NMeD]-Pyrrolidide; lactam N-11)
IC50 [1]: 0.44 nM | IC50 [2]: 50 to 100 nM

CC[C@H](C)[C@@H]1NC(=O)[C@H](CC(C)C)N(C)C(=O)C[C@H]2CCCCN2C(=O)[C@H](C(C)C)N(C)C(=O)C2(CCCC2)NC(=O)[C@@H]2CCCN2C(=O)[C@H](CCc2ccc(C(F)(F)F)c(Cl)c2)NC(=O)CN(C)C(=O)[C@H](CC2CCCCC2)N(C)C(=O)CN(C)C(=O)CN(C)C1=O [Compound 747] (cyclo([Ac5c][NMeV][dβ3hPip][NMeL]I[Sar][Sar][NMeCha][Sar][hPhe(3-Cl-4-CF3)]P))
IC50 [1]: 11 nM | IC50 [2]: 100 to 500 nM

CC[C@H](C)[C@@H]1NC(=O)[C@H]([C@@H](C)O)N(C)C(=O)C[C@@H](C(=O)N2CCCCC2)N(C)C(=O)[C@H](C2CCCCC2)N(C)C(=O)C2(CCCC2)NC(=O)[C@@H]2CCCN2C(=O)[C@H](CCc2ccc(C(F)(F)F)c(Cl)c2)NC(=O)CN(C)C(=O)[C@H](CC2CCCCC2)N(C)C(=O)CN(C)C(=O)CN(C)C1=O [Compound 756] ([NMeT]I[Sar][Sar][NMeCha][Sar][hPhe(3-Cl-4-CF3)]P[Ac5c][NMeChg][NMeD]-Piperidide; lactam N-11)
IC50 [1]: 0.58 nM | IC50 [2]: 100 to 500 nM

CC[C@H](C)[C@@H]1NC(=O)[C@H](CC(C)C)N(C)C(=O)C[C@@H](C(=O)N2CCCCC2)N(C)C(=O)[C@H](CCC(C)C)N(C)C(=O)C2(CCCC2)NC(=O)[C@@H]2CCCN2C(=O)[C@H](CCc2ccc(C(F)(F)F)c(Cl)c2)NC(=O)CN(C)C(=O)[C@H](CC2CCCCC2)N(C)C(=O)CN(C)C(=O)CN(C)C1=O [Compound 762] ([NMeL]I[Sar][Sar][NMeCha][Sar][hPhe(3-Cl-4-CF3)]P[Ac5c][NMehLeu][NMeD]-Piperidide; lactam N-11)
IC50 [1]: 5.5 nM | IC50 [2]: 100 to 500 nM

CC[C@H](C)[C@@H]1NC(=O)[C@H](CC(F)(F)F)N(C)C(=O)C[C@@H](C(=O)N2CCOCC2)N(C)C(=O)[C@H](C2CCCCC2)N(C)C(=O)C2(CCCC2)NC(=O)[C@@H]2CCCN2C(=O)[C@H](CCc2ccc(C(F)(F)F)c(Cl)c2)NC(=O)CN(C)C(=O)[C@H](CC2CCCCC2)N(C)C(=O)CN(C)C(=O)CN(C)C1=O [Compound 774] ([NMeAbu(4,4,4-F3)]I[Sar][Sar][NMeCha][Sar][hPhe(3-Cl-4-CF3)]P[Ac5c][NMeChg][NMeD]-Morpholide; lactam N-11)
IC50 [1]: 0.55 nM | IC50 [2]: 20 to 50 nM

CCC[C@H]1C(=O)N[C@@H]([C@@H](C)CC)C(=O)N(C)CC(=O)N(C)CC(=O)N(C)[C@@H](CC2CCCCC2)C(=O)N(C)CC(=O)N[C@@H](CCc2ccc(C(F)(F)F)c(Cl)c2)C(=O)N2CCC[C@H]2C(=O)NC2(CCCC2)C(=O)N(C)[C@@H](C2CCCCC2)C(=O)N(C)[C@H](C(=O)N2CCCCC2)CC(=O)N1C [Compound 778] ([NMeNva]I[Sar][Sar][NMeCha][Sar][hPhe(3-Cl-4-CF3)]P[Ac5c][NMeChg][NMeD]-Piperidide; lactam N-11)
IC50 [1]: 0.7 nM | IC50 [2]: 20 to 50 nM

CC[C@H](C)[C@@H]1NC(=O)[C@H](CC(C)C)N(C)C(=O)C[C@@H](C(=O)N(C)C)N(C)C(=O)[C@H]([C@@H](C)CC)N(C)C(=O)C2(CCCC2)NC(=O)[C@H](Cc2cccc(Cl)c2)N(C)C(=O)[C@H](CCc2ccc(C(F)(F)F)c(Cl)c2)NC(=O)CN(C)C(=O)[C@H](Cc2ccc(C)cc2)N(C)C(=O)[C@@H]2CCN2C(=O)[C@H](C)N(C)C1=O [Compound 783] ([NMeL]I[NMeA][Aze][NMePhe(4-Me)][Sar][hPhe(3-Cl-4-CF3)][NMePhe(3-Cl)][Ac5c][NMeI][NMeD]-NMe2; lactam N-11)
IC50 [1]: 9.8 nM | IC50 [2]: 50 to 100 nM

CC[C@H](C)[C@@H]1NC(=O)[C@H](CC(C)C)N(C)C(=O)C[C@@H](C(=O)N2CCCCC2)N(C)C(=O)[C@H](CC2CC2)N(C)C(=O)C2(CCCC2)NC(=O)[C@@H]2CCCN2C(=O)[C@H](CCc2ccc(C(F)(F)F)c(Cl)c2)NC(=O)CN(C)C(=O)[C@H](CC2CCCCC2)N(C)C(=O)CN(C)C(=O)CN(C)C1=O [Compound 787] ([NMeL]I[Sar][Sar][NMeCha][Sar][hPhe(3-Cl-4-CF3)]P[Ac5c][NMeAla(cPr)][NMeD]-Piperidide; lactam N-11)
IC50 [1]: 2.9 nM | IC50 [2]: 100 to 500 nM
